Test results as given in ChEMBL document CHEMBL3804772, “Enantioselective synthesis and antioxidant activity of 3,4,5-substituted piperidine derivatives” (Bioorg Med Chem Lett, 2016).

Test: Antioxidant activity assessed as ABTS radical scavenging activity after 60 mins
Format: physicochemical

| SMILES | IC50 |
| --- | --- |
| CC(=O)OC[C@@H]1CN(Cc2ccccc2)C[C@@H](ON2C(C)(C)CCCC2(C)C)[C@H]1c1ccccc1 | 0.573 µM |
| OC[C@@H]1CN(Cc2ccccc2)C[C@@H](O)[C@H]1c1ccc(F)cc1 | 9.61 µM |
| O=c1c(O)c(-c2ccc(O)c(O)c2)oc2cc(O)cc(O)c12 [QUERCETIN] | 5.57 µM |
| CCOC(=O)[C@@H]1C(=O)N(Cc2ccccc2)C[C@@H](O)[C@H]1c1ccc(C)cc1 | > 100 µM |
| OC[C@@H]1CN(Cc2ccccc2)C[C@@H](O)[C@H]1c1ccccc1 | > 100 µM |
| OC[C@@H]1CN(Cc2ccccc2)CC[C@H]1c1ccccc1 | > 100 µM |
| CC1(C)CCCC(C)(C)N1O[C@@H]1CN(Cc2ccccc2)C[C@@H](CO)[C@@H]1c1ccccc1 | 0.093 µM |
| CCOC(=O)[C@@H]1C(=O)N(Cc2ccccc2)C[C@@H](ON2C(C)(C)CCCC2(C)C)[C@H]1c1ccc(C)cc1 | 98.4 µM |
| CCOC(=O)[C@@H]1C(=O)N(Cc2ccccc2)C[C@@H](O)[C@H]1c1ccc(F)cc1 | > 100 µM |
| CCOC(=O)[C@@H]1C(=O)N(Cc2ccccc2)C[C@@H](ON2C(C)(C)CCCC2(C)C)[C@H]1c1ccccc1 | 12.2 µM |
| CCOC(=O)[C@@H]1C(=O)N(Cc2ccccc2)CC[C@H]1c1ccccc1 | > 100 µM |
| O=C1O[C@H]([C@@H](O)CO)C(O)=C1O [ASCORBIC ACID] | 25.6 µM |
| CCOC(=O)[C@@H]1C(=O)N(Cc2ccccc2)C[C@@H](ON2C(C)(C)CCCC2(C)C)[C@H]1c1ccc(F)cc1 | 15.9 µM |
| CC1(C)CCCC(C)(C)N1[O] | 0.026 µM |
| CC1(C)CCCC(C)(C)N1O[C@@H]1CN(Cc2ccccc2)C[C@@H](CO)[C@@H]1c1ccc(F)cc1 | 0.095 µM |
| Cc1ccc([C@H]2[C@H](CO)CN(Cc3ccccc3)C[C@H]2ON2C(C)(C)CCCC2(C)C)cc1 | 0.09 µM |
| CCOC(=O)[C@@H]1C(=O)N(Cc2ccccc2)C[C@@H](O)[C@H]1c1ccccc1 | > 100 µM |
| Cc1ccc([C@H]2[C@H](CO)CN(Cc3ccccc3)C[C@H]2O)cc1 | 85.3 µM |
